{"source": "patent US20050026296A1", "about": "“Diagnostic method based on lipid measuring parameter modulations/effector quotient profiles” (priority 2001, published 2005)", "system": "leukocytes from the peripheral blood", "test": "Release of prostaglandin E2 (PGE2) and peptide leukotrienes (pLT) from leukocytes after modulation, quantified by EIA", "assay_type": "cell-based, human", "conditions": "for PGE2 (lipid measurement parameter A) in cell culture supernatant / pLT (lipid measurement parameter B) in cell culture supernatant: 100,000 cells/ml, 37° C., 30 minutes; for Standardized effector quotient (PGE/pLT) / Standardized modulation quotient PGE2 / Standardized modulation quotient pLT: divided by quotient of standard group", "procedure": "Human leukocytes of the peripheral blood are separated from plasma with the aid of a dextran gradient, and adjusted to a defined cell count (100,000 cells/ml). Subsequently, the stimulation is effected by incubation of the cells, e.g. without or while adding arachidonic acid as modulating indicator substance, or anti-IgE as modulating effector for a defined time (30 minutes) at 37° C. in cell culture medium (e.g. RPMI 1640). After sedimentation of the cells by centrifugation for 5 minutes with 800×g at 4° C., the cell-free supernatant is collected and can be stored at −80° C. under nitrogen or argon, if desired. Afterwards, these measurement samples are transferred to a polystyrol plate coated with prostaglandin E2 or peptide leukotrienes, respectively, and incubated for 18 hours at 4° C. while adding an anti-prostaglandin-E2- or anti-peptide-leukotriene-antibody, respectively, (“competitive assay”). After a washing step, an incubation at 23° C. for 2 hours is performed with a biotinylated secondary antibody against the first antibody. After further washing, incubation follows with a streptavidin-conjugated peroxidase at 23° C. for 1 hour, and after further washing, a peroxidase substrate is added and the optical density is determined after about 30 minutes with a multichannel photometer. With the aid of the standard curves carried along, the measurement values can now be quantified and used for calculating the lipid measurement parameter stimulation/effector quotient profiles (an example for the calculation is given herein below).\n1) Leukocytes from the peripheral blood of investigation group 1/standard group/investigation group 2 are obtained by blood withdrawal, followed by density gradient separation (3% dextran solution) for separating plasma and leukocytes. The leukocytes thus obtained are washed 3 times with phosphate buffered solution (PBS) and pooled/resuspended in cell culture medium ([…]), before they are adjusted to a cell count of 100,000 cells/ml (investigation group 2 only in this example; in principle, a second group is not necessary for this test, but serves here for a better understanding and as second comparison group, both to the standard group and to the investigation group).\n2) The cells are divided into 3 equal parts (e.g. 3 times with 1 ml cell suspension with 100,000 cells/ml each) in reaction vessels (e.g. plastic or glass vessels).\nA control solution is added to the first part-sample (=without further modulator, =zero or blank value; control solution is the solvent, in which the modulators are dissolved).\nArachidonic acid is added to the second part-sample (concentration: 10^−5 M; =indicator substance).\nAn anti-immunoglobulin-E solution is added to the third part-sample (e.g. 1:100 dilution of the anti-human-IgE-solution from DAKO, =modulator or modulating substance).\nExposition/incubation with the indicator substance arachidonic acid and the modulator anti-immunoglobulin-E-solution is started simultaneously at e.g. 37° C. for e.g. 30 minutes.\nThereafter, the cells are separated from the cell culture medium, e.g. by centrifugation at 4° C. with a sedimentation force of e.g. 800×g. The supernatant obtained from the 3 part-samples, separated for each part-sample, is then collected in suitable vessels (e.g. cryovessels) and stored until EIA analysis at e.g. −70° C.\n3) The contents of prostaglandin E2 (PGE2) and peptide leukotrienes (pLT9) in the cell culture supernatants of the 3 part-samples are analysed and quantified by enzyme immunological assays (EIA) specific for PGE2 (=lipid measurement parameter A) and pLT (=lipid measurement parameter B), respectively.", "data": [{"smiles": "CCCCC/C=C\\C/C=C\\C/C=C\\C/C=C\\CCCC(=O)O", "note": "[arachidonic acid]", "values": [{"measurement": "PGE2 (lipid measurement parameter A) in cell culture supernatant", "setting": "Investigation group 1 (I1)", "value": "4120 ± 236", "unit": "pg/mL"}, {"measurement": "pLT (lipid measurement parameter B) in cell culture supernatant", "setting": "Investigation group 1 (I1)", "value": "150±10.4", "unit": "pg/ml"}, {"measurement": "Effector quotient (PGE/pLT)", "setting": "Investigation group 1 (i1)", "value": 27.5}, {"measurement": "Modulation quotient PGE2 (modulated value / zero value A0)", "setting": "Investigation group 1 (i1)", "value": 11.8}, {"measurement": "Modulation quotient pLT (modulated value / zero value B0)", "setting": "Investigation group 1 (i1)", "value": 1.3}, {"measurement": "Standardized effector quotient (PGE/pLT)", "setting": "Investigation group 1 (i1)", "value": 0.941}, {"measurement": "Standardized modulation quotient PGE2", "setting": "Investigation group 1 (i1)", "value": 5.1}, {"measurement": "Standardized modulation quotient pLT", "setting": "Investigation group 1 (i1)", "value": 0.21}, {"measurement": "PGE2 (lipid measurement parameter A) in cell culture supernatant", "setting": "Investigation group 2 (I2)", "value": "3976 ± 245", "unit": "pg/mL"}, {"measurement": "pLT (lipid measurement parameter B) in cell culture supernatant", "setting": "Investigation group 2 (I2)", "value": "128 ± 10.4", "unit": "pg/ml"}, {"measurement": "Effector quotient (PGE/pLT)", "setting": "Investigation group 2 (i2)", "value": 31.1}, {"measurement": "Modulation quotient PGE2 (modulated value / zero value A0)", "setting": "Investigation group 2 (i2)", "value": 1.8}, {"measurement": "Modulation quotient pLT (modulated value / zero value B0)", "setting": "Investigation group 2 (i2)", "value": 2.4}, {"measurement": "Standardized effector quotient (PGE/pLT)", "setting": "Investigation group 2 (i2)", "value": 1.065}, {"measurement": "Standardized modulation quotient PGE2", "setting": "Investigation group 2 (i2)", "value": 0.78}, {"measurement": "Standardized modulation quotient pLT", "setting": "Investigation group 2 (i2)", "value": 0.38}, {"measurement": "PGE2 (lipid measurement parameter A) in cell culture supernatant", "setting": "Standard group (N)", "value": "4170 ± 275", "unit": "pg/mL"}, {"measurement": "pLT (lipid measurement parameter B) in cell culture supernatant", "setting": "Standard group (N)", "value": "143 ± 12.4", "unit": "pg/ml"}, {"measurement": "Effector quotient (PGE/pLT)", "setting": "Standard group (n)", "value": 29.2}, {"measurement": "Modulation quotient PGE2 (modulated value / zero value A0)", "setting": "Standard group (n)", "value": 2.3}, {"measurement": "Modulation quotient pLT (modulated value / zero value B0)", "setting": "Standard group (n)", "value": 6.2}, {"measurement": "Standardized effector quotient (PGE/pLT)", "setting": "Standard group (n)", "value": "1 (0.9-1.1)"}, {"measurement": "Standardized modulation quotient PGE2", "setting": "Standard group (n)", "value": "1 (0.8-1.2)"}, {"measurement": "Standardized modulation quotient pLT", "setting": "Standard group (n)", "value": "1 (0.5-1.2)"}, {"measurement": "induced synthesis of prostaglandin E2 compared with persons without pathological findings", "setting": "analgesic intolerance", "value": "unstriking"}, {"measurement": "elevation of induced synthesis of peptide leukotriene compared with persons without pathological findings", "setting": "analgesic intolerance, unstriking to faintly elevated", "value": "0-40%"}]}]}
